The assay has as its target PDE1A (Homo sapiens, UniProt P54750). Kind of assay: PDE1A enzyme inhibition (fluorescence polarization, FAM-cyclic-3',5'-AMP). It counts as biochemical. The conditions noted are these: for IC50: 15 ng/mL PDE1A, 100 nM FAM-cAMP, 25 °C, 1 h; for PDE1A inhibitory activity compared to vinpocetine (in words) / fold improvement in PDE1A inhibitory activity compared to vinpocetine: relative to vinpocetine. As to the method: The assays were carried out as described previously. All of the enzymatic reactions were conducted at 25 °C for 1 h. The reaction mixture contains 40 mM MOPS (pH 7.5), 0.5 mM EDTA, 15 mM MgCl2, 0.15 mg/mL BSA, 1 mM DTT, 0.05% Proclin 200, 15 ng/mL PDE1A, and 100 nM FAM-cyclic-3′, 5′-AMP. The compounds were dissolved in 10% DMSO, and 5 μL of the dilution was added to a 50 μL reaction for a final concentration of 1% DMSO in all reactions. The reaction mixture was incubated at 25 °C for 1 h. Then, 100 μL of diluted binding agent was added to each well and incubated at 25 °C for 1 h with slow shaking. The fluorescence polarization of the sample was detected using an excitation filter of 360 nm and an emission filter of 480 nm. The IC50 values were calculated using non-linear regression with a normalized dose–response fit using Prism 6 (GraphPad Software, San Diego, CA, USA).

Sequence of PDE1A (P54750 whole entry, species assumed): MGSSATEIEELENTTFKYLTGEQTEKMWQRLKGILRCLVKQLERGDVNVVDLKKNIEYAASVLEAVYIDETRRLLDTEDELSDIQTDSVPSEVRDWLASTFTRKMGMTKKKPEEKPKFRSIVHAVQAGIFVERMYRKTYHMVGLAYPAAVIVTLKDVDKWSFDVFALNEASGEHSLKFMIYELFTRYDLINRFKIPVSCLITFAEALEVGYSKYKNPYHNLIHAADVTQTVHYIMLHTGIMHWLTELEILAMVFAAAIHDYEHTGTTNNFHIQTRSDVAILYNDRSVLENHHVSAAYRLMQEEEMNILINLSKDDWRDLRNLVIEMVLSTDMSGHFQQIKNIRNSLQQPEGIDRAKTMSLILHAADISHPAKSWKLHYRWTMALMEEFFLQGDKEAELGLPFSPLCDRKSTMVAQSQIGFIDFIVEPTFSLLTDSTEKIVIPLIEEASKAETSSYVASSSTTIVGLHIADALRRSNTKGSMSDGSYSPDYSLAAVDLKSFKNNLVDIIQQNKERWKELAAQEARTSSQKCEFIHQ

Turning to `CC[C@@]12C=C(COCc3ccccc3Br)n3c4c(c5ccccc53)CCN(CCC1)[C@H]42` [Compound 13, (41S,13aS)-12-(((2-bromobenzyl)oxy)methyl)-13a-ethyl-2,3,41,5,6,13a-hexahydro-1H-indolo[3,2,1-de]pyrido[3,2,1-ij][1,5]naphthyridine], the IC50 amounted to 88.3 ± 3.26 µM.

For the compound `CC[C@@]12C=C(COCc3ccccc3C#N)n3c4c(c5ccccc53)CCN(CCC1)[C@H]42` [Compound 15, 2-((((41S,13aS)-13a-ethyl-2,3,41,5,6,13a-hexahydro-1H-indolo[3,2,1-de]pyrido[3,2,1-ij][1,5]naphthyridin-12-yl)methoxy)methyl)benzonitrile], the half-maximal inhibitory concentration (IC50) was determined as 45.1 ± 2.27 µM.

Consider `CC[C@@]12C=C(COCc3ccc(Cl)cc3)n3c4c(c5ccccc53)CCN(CCC1)[C@H]42` [Compound 8, (41S,13aS)-12-(((4-chlorobenzyl)oxy)methyl)-13a-ethyl-2,3,41,5,6,13a-hexahydro-1H-indolo[3,2,1-de]pyrido[3,2,1-ij][1,5]naphthyridine], for which the midpoint of inhibition, the IC50, lay at 48.8 ± 2.55 µM.

`CCOC(=O)C1=C[C@]2(CC)CCCN3CCc4c(n1c1ccccc41)[C@@H]32` [Vinpocetine] had an IC50 of 17.3 ± 1.21 µM.

Compound `CC[C@@]12C=C(COCc3cccc4ccccc34)n3c4c(c5ccccc53)CCN(CCC1)[C@H]42` [Compound 19, (41S,13aS)-13a-ethyl-12-((naphthalen-1-ylmethoxy)methyl)-2,3,41,5,6,13a-hexahydro-1H-indolo[3,2,1-de]pyrido[3,2,1-ij][1,5]naphthyridine] displayed a half-inhibitory concentration (IC50) of 54.3 ± 1.84 µM.

As for `CC[C@@]12C=C(COCc3cc(C)cc(C)c3)n3c4c(c5ccccc53)CCN(CCC1)[C@H]42` [Compound 21, (41S,13aS)-12-(((3,5-dimethylbenzyl)oxy)methyl)-13a-ethyl-2,3,41,5,6,13a-hexahydro-1H-indolo[3,2,1-de]pyrido[3,2,1-ij][1,5]naphthyridine], the half-inhibitory concentration (IC50) turned out to be 10 ± 0.85 µM and the “PDE1A inhibitory activity compared to vinpocetine (in words)” value is reported as “superior inhibitory activity compared to vinpocetine”.

For the compound `CC[C@@]12C=C(COCc3ccc(F)cc3)n3c4c(c5ccccc53)CCN(CCC1)[C@H]42` [Compound 5, (41S,13aS)-13a-ethyl-12-(((4-fluorobenzyl)oxy)methyl)-2,3,41,5,6,13a-hexahydro-1H-indolo[3,2,1-de]pyrido[3,2,1-ij][1,5]naphthyridine], the IC50 was 17.2 ± 3.75 µM and the “PDE1A inhibitory activity compared to vinpocetine (in words)” value is “superior inhibitory activity compared to vinpocetine”.

`CC[C@@]12C=C(COCc3ccc4ccccc4c3)n3c4c(c5ccccc53)CCN(CCC1)[C@H]42` [Compound 20, (41S,13aS)-13a-ethyl-12-((naphthalen-2-ylmethoxy)methyl)-2,3,41,5,6,13a-hexahydro-1H-indolo[3,2,1-de]pyrido[3,2,1-ij][1,5]naphthyridine] showed a half-maximal inhibitory concentration (IC50) of 89.6 ± 5.34 µM.

In turn, `CC[C@@]12C=C(COCc3ccc(C(F)(F)F)cc3)n3c4c(c5ccccc53)CCN(CCC1)[C@H]42` [Compound 16, (41S,13aS)-13a-ethyl-12-(((4-(trifluoromethyl)benzyl)oxy)methyl)-2,3,41,5,6,13a-hexahydro-1H-indolo[3,2,1-de]pyrido[3,2,1-ij][1,5]naphthyridine] registered an IC50 of 57.7 ± 2.96 µM.

For `CC[C@@]12C=C(COCc3cccc(Br)c3)n3c4c(c5ccccc53)CCN(CCC1)[C@H]42` [Compound 12, (41S,13aS)-12-(((3-bromobenzyl)oxy)methyl)-13a-ethyl-2,3,41,5,6,13a-hexahydro-1H-indolo[3,2,1-de]pyrido[3,2,1-ij][1,5]naphthyridine], the IC50 is 12.5 ± 1.06 µM and the “PDE1A inhibitory activity compared to vinpocetine (in words)” value is given as “superior inhibitory activity compared to vinpocetine”.

`CC[C@@]12C=C(COCc3ccccc3)n3c4c(c5ccccc53)CCN(CCC1)[C@H]42` [Compound 2, (41S,13aS)-12-((benzyloxy)methyl)-13a-ethyl-2,3,41,5,6,13a-hexahydro-1H-indolo[3,2,1-de]pyrido[3,2,1-ij][1,5]naphthyridine] returned a half-inhibitory concentration (IC50) of 19.2 ± 2.25 µM.

`CC[C@@]12C=C(COCc3ccccc3Cl)n3c4c(c5ccccc53)CCN(CCC1)[C@H]42` [Compound 10, (41S,13aS)-12-(((2-chlorobenzyl)oxy)methyl)-13a-ethyl-2,3,41,5,6,13a-hexahydro-1H-indolo[3,2,1-de]pyrido[3,2,1-ij][1,5]naphthyridine] yielded an IC50 of 35 ± 1.85 µM.

The compound `CC[C@@]12C=C(COCc3cc(C)nn3C)n3c4c(c5ccccc53)CCN(CCC1)[C@H]42` [Compound 24, (41S,13aS)-12-(((1,3-dimethyl-1H-pyrazol-5-yl)methoxy)methyl)-13a-ethyl-2,3,41,5,6,13a-hexahydro-1H-indolo[3,2,1-de]pyrido[3,2,1-ij][1,5]naphthyridine] had an IC50 of 63.7 ± 3.85 µM.

For `CC[C@@]12C=C(COCc3ccc(C)cc3)n3c4c(c5ccccc53)CCN(CCC1)[C@H]42` [Compound 3, (41S,13aS)-13a-ethyl-12-(((4-methylbenzyl)oxy)methyl)-2,3,41,5,6,13a-hexahydro-1H-indolo[3,2,1-de]pyrido[3,2,1-ij][1,5]naphthyridine], the IC50 stood at 8.52 ± 0.68 µM and the “PDE1A inhibitory activity compared to vinpocetine (in words)” value is on record as “superior inhibitory activity compared to vinpocetine”.

Regarding `CC[C@@]12C=C(COCc3ccc(C#N)cc3)n3c4c(c5ccccc53)CCN(CCC1)[C@H]42` [Compound 14, 4-((((41S,13aS)-13a-ethyl-2,3,41,5,6,13a-hexahydro-1H-indolo[3,2,1-de]pyrido[3,2,1-ij][1,5]naphthyridin-12-yl)methoxy)methyl)benzonitrile], the IC50 was found to be 15.6 ± 1.09 µM and the “PDE1A inhibitory activity compared to vinpocetine (in words)” value is “superior inhibitory activity compared to vinpocetine”.

`CCC12C=C(COCc3cccc(C)c3)n3c4c(c5ccccc53)CCN(CCC1)C42` [Compound 4, (41S,13aS)-13a-ethyl-12-(((3-methylbenzyl)oxy)methyl)-2,3,41,5,6,13a-hexahydro-1H-indolo[3,2,1-de]pyrido[3,2,1-ij][1,5]naphthyridine]: the concentration for half-maximal inhibition (IC50) came out at 3.53 ± 0.25 µM, the “PDE1A inhibitory activity compared to vinpocetine (in words)” value is listed as “superior inhibitory activity compared to vinpocetine” and the “fold improvement in PDE1A inhibitory activity compared to vinpocetine” value was 5 fold.

In turn, `CC[C@@]12C=C(COCc3cc(Br)cc(Br)c3)n3c4c(c5ccccc53)CCN(CCC1)[C@H]42` [Compound 23, (41S,13aS)-12-(((3,5-dibromobenzyl)oxy)methyl)-13a-ethyl-2,3,41,5,6,13a-hexahydro-1H-indolo[3,2,1-de]pyrido[3,2,1-ij][1,5]naphthyridine] had an IC50 of 58.2 ± 3.2 µM.

Take `CC[C@@]12C=C(COCc3cc(F)cc(F)c3)n3c4c(c5ccccc53)CCN(CCC1)[C@H]42` [Compound 22, (41S,13aS)-12-(((3,5-difluorobenzyl)oxy)methyl)-13a-ethyl-2,3,41,5,6,13a-hexahydro-1H-indolo[3,2,1-de]pyrido[3,2,1-ij][1,5]naphthyridine]: the half-maximal inhibitory concentration (IC50) is 46.4 ± 1.94 µM.

On to `CC[C@@]12C=C(COCc3ccccc3F)n3c4c(c5ccccc53)CCN(CCC1)[C@H]42` [Compound 7, (41S,13aS)-13a-ethyl-12-(((2-fluorobenzyl)oxy)methyl)-2,3,41,5,6,13a-hexahydro-1H-indolo[3,2,1-de]pyrido[3,2,1-ij][1,5]naphthyridine], for which the IC50 stood at 28.7 ± 1.15 µM.

As for `CC[C@@]12C=C(COCc3cccc(C(F)(F)F)c3)n3c4c(c5ccccc53)CCN(CCC1)[C@H]42` [Compound 17, (41S,13aS)-13a-ethyl-12-(((3-(trifluoromethyl)benzyl)oxy)methyl)-2,3,41,5,6,13a-hexahydro-1H-indolo[3,2,1-de]pyrido[3,2,1-ij][1,5]naphthyridine], the 50% inhibitory concentration (IC50) came out at 48.4 ± 1.44 µM.

For the compound `CC[C@@]12C=C(COCc3cccc(Cl)c3)n3c4c(c5ccccc53)CCN(CCC1)[C@H]42` [Compound 9, (41S,13aS)-12-(((3-chlorobenzyl)oxy)methyl)-13a-ethyl-2,3,41,5,6,13a-hexahydro-1H-indolo[3,2,1-de]pyrido[3,2,1-ij][1,5]naphthyridine], the IC50 turned out to be 72.1 ± 3.89 µM.

For the compound `CC[C@@]12C=C(COCc3ccc(Br)cc3)n3c4c(c5ccccc53)CCN(CCC1)[C@H]42` [Compound 11, (41S,13aS)-12-(((4-bromobenzyl)oxy)methyl)-13a-ethyl-2,3,41,5,6,13a-hexahydro-1H-indolo[3,2,1-de]pyrido[3,2,1-ij][1,5]naphthyridine], 54.8 ± 3.42 µM corresponded to half-maximal inhibition (IC50).

The compound `CC[C@@]12C=C(COCc3cccc(F)c3)n3c4c(c5ccccc53)CCN(CCC1)[C@H]42` [Compound 6, (41S,13aS)-13a-ethyl-12-(((3-fluorobenzyl)oxy)methyl)-2,3,41,5,6,13a-hexahydro-1H-indolo[3,2,1-de]pyrido[3,2,1-ij][1,5]naphthyridine] came in with a 50% inhibitory concentration (IC50) of 25.6 ± 1.23 µM.

`CC[C@@]12C=C(COCc3ccc(-c4ccccc4)cc3)n3c4c(c5ccccc53)CCN(CCC1)[C@H]42` [Compound 18, (41S,13aS)-12-(([1,1′-biphenyl]-4-ylmethoxy)methyl)-13a-ethyl-2,3,41,5,6,13a-hexahydro-1H-indolo[3,2,1-de]pyrido[3,2,1-ij][1,5]naphthyridine] yielded an IC50 of 44.8 ± 2.26 µM.

In the case of `CCC12C=C(COCc3cnc(Cl)s3)n3c4c(c5ccccc53)CCN(CCC1)C42` [Compound 25, 2-chloro-5-((((41S,13aS)-13a-ethyl-2,3,41,5,6,13a-hexahydro-1H-indolo[3,2,1-de]pyrido[3,2,1-ij][1,5]naphthyridin-12-yl)methoxy)methyl)thiazole], the IC50 is 2.08 ± 0.16 µM, the “PDE1A inhibitory activity compared to vinpocetine (in words)” value is on record as “superior inhibitory activity compared to vinpocetine” and the “fold improvement in PDE1A inhibitory activity compared to vinpocetine” value came out at 8 fold.

As a reminder, the IC50 is the midpoint of a concentration-inhibition curve. A low value points to greater potency.
